Measured values as given in patent US7109296B2, “Human 5-HT3-C protein” (Ortho-McNeil Pharmaceutical, Inc., priority 1999, dated 2006).

Experiments:
Assay type in all cases: cell-based
human 5-HT3-C = molecular target: T1, human 5-HT3-C (Homo sapiens, UniProt Q8WXA8); assay: Two-electrode voltage clamp, Xenopus oocytes injected with 5-HT3-C cRNA alone; settings: for sensitivity of oocytes to neuroactive compound: >100 μM, only 5-HT3-C cRNA (33.5 ng), n=5
T1 construct: Characterization of the Function of Protein Encoded by p5HT3CR in Xenopus oocvtes; expressed in transfected cells; host or cells: Xenopus laevis oocytes injected with in vitro transcribed cRNA (pGEM HE)
T1 sequence (Q8WXA8 28-447): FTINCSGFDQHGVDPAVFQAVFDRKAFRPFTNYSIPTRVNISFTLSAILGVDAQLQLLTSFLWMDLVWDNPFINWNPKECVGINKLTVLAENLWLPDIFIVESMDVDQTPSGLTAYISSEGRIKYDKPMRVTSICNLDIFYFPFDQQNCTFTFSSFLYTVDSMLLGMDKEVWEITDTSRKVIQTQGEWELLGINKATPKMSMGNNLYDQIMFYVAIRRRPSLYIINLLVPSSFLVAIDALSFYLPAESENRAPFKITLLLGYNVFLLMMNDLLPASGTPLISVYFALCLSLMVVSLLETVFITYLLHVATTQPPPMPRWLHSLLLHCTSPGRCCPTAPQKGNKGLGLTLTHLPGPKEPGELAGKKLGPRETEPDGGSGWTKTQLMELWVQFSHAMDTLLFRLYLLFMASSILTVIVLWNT
Procedure: (§1) Characterization of the Function of Protein Encoded by p5HT3CR in Xenopus oocvtes Xenopus laevis oocytes were prepared and injected using standard methods previously described and known in the art (Fraser et al., 1993). Ovarian lobes from adult female Xenopus laevis (Nasco, Fort Atkinson, Wis.) were teased apart, rinsed several times in nominally Ca-free saline containing (in mM): NaCl 82.5, KCl 2.5, MgCl2 1, HEPES 5, adjusted to pH 7.0 with NaOH(OR-2), and gently shaken in OR-2 containing 0.2% collagenase Type 1 (ICN Biomedicals, Aurora, Ohio) for 2–5 hours. When approximately 50% of the follicular layers were removed, Stage V and VI oocytes were selected and rinsed in media consisting of 75% OR-2 and 25% ND-96. The ND-96 contained (in mM): NaCl 100, KCl 2, MgCl2 1, CaCl2 1.8, HEPES 5, Na pyruvate 2.5, gentamicin (50 ug/ml), adjusted to pH 7.0 with NaOH. […] For in vitro transcription, pGEM HE (Liman et al., 1992) containing human 5-HT3-A (Genbank D49394) or 5-HT3-C cDNA was linearized with NheI and transcribed with T7 RNA polymerase (Stratagene) in the presence of the cap analog m7G(5′)ppp(5′)G. The synthesized cRNA was purified with a Sephadex G-50 spin column. […] Control oocytes were injected with 50 nl of water. Oocytes were incubated for 2–14 days in ND-96 before analysis for expression of the human 5-HT3-C. Incubations and collagenase digestion were carried out at room temperature. Injected oocytes were maintained in 48 well cell culture clusters (Costar, Cambridge, Mass.) at 18° C. Whole cell agonist-induced currents were measured 1–14 days after injection with a conventional two-electrode voltage clamp (GeneClamp500, Axon Instruments, Foster City, Calif.) using standard methods previously described and known in the art (Dascal, 1987). The microelectrodes were filled with 3 M KCl, which had resistances of 1 and 2 MΩ. Cells were continuously perfused with ND96 at 10 ml/min at room temperature unless indicated. Membrane voltage was clamped at −70 mV unless indicated.

[1] = molecular target: T2, long form of human 5-HT3-A together with 5-HT3-C (Homo sapiens, UniProt P46098+Q8WXA8); assay: Two-electrode voltage clamp, oocytes co-injected with long form of human 5-HT3-A and 5-HT3-C; settings: 100 μM; n=2
T2 construct: Characterization of the Function of Protein Encoded by p5HT3CR in Xenopus oocvtes; expressed in transfected cells; host or cells: Xenopus laevis oocytes co-injected with cRNAs
T2 sequence (P46098 24-510 isoform P46098-2): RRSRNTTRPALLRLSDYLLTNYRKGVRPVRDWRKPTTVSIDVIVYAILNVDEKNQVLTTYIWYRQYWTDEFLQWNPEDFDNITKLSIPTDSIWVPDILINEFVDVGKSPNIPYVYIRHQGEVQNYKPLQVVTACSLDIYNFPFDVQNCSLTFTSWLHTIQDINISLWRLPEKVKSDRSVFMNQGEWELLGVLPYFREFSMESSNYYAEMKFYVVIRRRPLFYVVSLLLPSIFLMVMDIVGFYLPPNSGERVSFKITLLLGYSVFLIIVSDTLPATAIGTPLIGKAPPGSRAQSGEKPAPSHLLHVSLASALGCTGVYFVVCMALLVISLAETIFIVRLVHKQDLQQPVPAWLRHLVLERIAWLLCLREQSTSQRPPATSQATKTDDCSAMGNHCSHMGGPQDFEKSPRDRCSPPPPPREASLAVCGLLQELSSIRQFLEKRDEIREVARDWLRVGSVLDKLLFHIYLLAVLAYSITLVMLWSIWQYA
T2 sequence (Q8WXA8 28-447): T1 sequence (Q8WXA8 28-447)
Procedure: Characterization of the Function of Protein Encoded by p5HT3CR in Xenopus oocvtes Xenopus laevis oocytes were prepared and injected using standard methods previously described and known in the art (Fraser et al., 1993). Ovarian lobes from adult female Xenopus laevis (Nasco, Fort Atkinson, Wis.) were teased apart, rinsed several times in nominally Ca-free saline containing (in mM): NaCl 82.5, KCl 2.5, MgCl2 1, HEPES 5, adjusted to pH 7.0 with NaOH(OR-2), and gently shaken in OR-2 containing 0.2% collagenase Type 1 (ICN Biomedicals, Aurora, Ohio) for 2–5 hours. When approximately 50% of the follicular layers were removed, Stage V and VI oocytes were selected and rinsed in media consisting of 75% OR-2 and 25% ND-96. The ND-96 contained (in mM): NaCl 100, KCl 2, MgCl2 1, CaCl2 1.8, HEPES 5, Na pyruvate 2.5, gentamicin (50 ug/ml), adjusted to pH 7.0 with NaOH. […] Whole cell agonist-induced currents were measured 1–14 days after injection with a conventional two-electrode voltage clamp (GeneClamp500, Axon Instruments, Foster City, Calif.) using standard methods previously described and known in the art (Dascal, 1987). […]

[2] = molecular target: T3, 5-HT3-C together with nicotinic ACh receptor subunits β1, β2 and β3 (Homo sapiens, UniProt Q8WXA8); assay: Two-electrode voltage clamp, oocytes injected with 5-HT3-C together with nicotinic ACh receptor subunits β1, β2 and β3; settings: >100 μM; 5-HT3-C with β1, β2 and β3 (0.2–0.25 ng); n=5;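 note: oocytes expressing the subunits for 2–14 days, voltage-clamped at −70 mV under continuous ND96 perfusion at room temperature, with water-injected oocytes serving as controls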
T3 construct: Characterization of the Function of Protein Encoded by p5HT3CR in Xenopus oocvtes; expressed in transfected cells; host or cells: Xenopus laevis oocytes injected with cRNA
T3 sequence (Q8WXA8 28-447): T1 sequence (Q8WXA8 28-447)

[3] = molecular target: T4, 5-HT3-C together with nicotinic ACh receptor a6 subunit (Homo sapiens, UniProt Q15825+Q8WXA8); assay: Two-electrode voltage clamp, oocytes injected with 5-HT3-C together with nicotinic ACh receptor α6 subunit; settings: eight days after injection, 5-HT3-C 0.67 ng, a6 1 ng/oocyte
T4 construct: Characterization of the Function of Protein Encoded by p5HT3CR in Xenopus oocvtes; expressed in transfected cells; host or cells: Xenopus laevis oocytes injected with cRNA
Procedure: Characterization of the Function of Protein Encoded by p5HT3CR in Xenopus oocvtes Xenopus laevis oocytes were prepared and injected using standard methods previously described and known in the art (Fraser et al., 1993). Ovarian lobes from adult female Xenopus laevis (Nasco, Fort Atkinson, Wis.) were teased apart, rinsed several times in nominally Ca-free saline containing (in mM): NaCl 82.5, KCl 2.5, MgCl2 1, HEPES 5, adjusted to pH 7.0 with NaOH(OR-2), and gently shaken in OR-2 containing 0.2% collagenase Type 1 (ICN Biomedicals, Aurora, Ohio) for 2–5 hours. When approximately 50% of the follicular layers were removed, Stage V and VI oocytes were selected and rinsed in media consisting of 75% OR-2 and 25% ND-96. The ND-96 contained (in mM): NaCl 100, KCl 2, MgCl2 1, CaCl2 1.8, HEPES 5, Na pyruvate 2.5, gentamicin (50 ug/ml), adjusted to pH 7.0 with NaOH. […] For in vitro transcription, pGEM HE (Liman et al., 1992) containing human 5-HT3-A (Genbank D49394) or 5-HT3-C cDNA was linearized with NheI and transcribed with T7 RNA polymerase (Stratagene) in the presence of the cap analog m7G(5′)ppp(5′)G. The synthesized cRNA was purified with a Sephadex G-50 spin column. Oocytes were injected with 50 nl of the human serotonin 5-HT3-A receptor with or without the 5-HT3-C RNA (0.02 and 0.002–0.2 ng each) or other channel or receptor subunit. Control oocytes were injected with 50 nl of water. Oocytes were incubated for 2–14 days in ND-96 before analysis for expression of the human 5-HT3-C. Incubations and collagenase digestion were carried out at room temperature. Injected oocytes were maintained in 48 well cell culture clusters (Costar, Cambridge, Mass.) at 18° C. Whole cell agonist-induced currents were measured 1–14 days after injection with a conventional two-electrode voltage clamp (GeneClamp500, Axon Instruments, Foster City, Calif.) using standard methods previously described and known in the art (Dascal, 1987). The microelectrodes were filled with 3 M KCl, which had resistances of 1 and 2 MΩ. […]

5-HT3-B and 5-HT3-C = molecular target: T5, 5-HT3-B and 5-HT3-C (Homo sapiens, UniProt O95264+Q8WXA8); assay: Two-electrode voltage clamp, oocytes co-injected with 5-HT3-B and 5-HT3-C; settings: 5-HT3-B 3.3 ng, 5-HT3-C 3.35 ng/oocyte
T5 construct: Characterization of the Function of Protein Encoded by p5HT3CR in Xenopus oocvtes; expressed in transfected cells; host or cells: Xenopus laevis oocytes co-injected with cRNAs
T5 sequence (O95264 22-441): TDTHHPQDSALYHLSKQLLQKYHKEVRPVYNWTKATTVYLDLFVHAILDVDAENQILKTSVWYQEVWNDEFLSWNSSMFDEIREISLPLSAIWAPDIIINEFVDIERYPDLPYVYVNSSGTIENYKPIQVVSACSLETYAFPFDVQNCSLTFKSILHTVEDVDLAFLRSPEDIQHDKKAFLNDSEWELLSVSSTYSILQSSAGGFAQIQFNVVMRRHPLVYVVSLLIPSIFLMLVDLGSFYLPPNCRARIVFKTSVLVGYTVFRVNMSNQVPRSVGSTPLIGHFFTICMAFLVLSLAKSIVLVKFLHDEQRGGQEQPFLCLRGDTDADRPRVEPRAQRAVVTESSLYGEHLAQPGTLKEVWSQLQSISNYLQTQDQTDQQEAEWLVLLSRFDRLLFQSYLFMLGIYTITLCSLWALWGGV
T5 sequence (Q8WXA8 28-447): T1 sequence (Q8WXA8 28-447)
Procedure: as §1

[4] = molecular target: T6, nicotinic ACh α3β4 receptors (Homo sapiens, UniProt P30926+P32297); assay: Two-electrode voltage clamp, oocytes expressing nicotinic ACh α3β4 receptors
T6 construct: expressed in transfected cells; host or cells: Xenopus laevis oocytes injected with cRNA

[5] = molecular target: T7, α3β4 receptors together with 5-HT3-C (Homo sapiens, UniProt P30926+P32297); assay: Two-electrode voltage clamp, oocytes expressing nicotinic ACh α3β4 receptors together with 5-HT3-C
T7 construct: expressed in transfected cells; host or cells: Xenopus laevis oocytes co-injected with cRNAs

[6] = 500 μM, oocytes injected with 33.5 ng 5-HT3-C

T7 sequence (P32297 32-505): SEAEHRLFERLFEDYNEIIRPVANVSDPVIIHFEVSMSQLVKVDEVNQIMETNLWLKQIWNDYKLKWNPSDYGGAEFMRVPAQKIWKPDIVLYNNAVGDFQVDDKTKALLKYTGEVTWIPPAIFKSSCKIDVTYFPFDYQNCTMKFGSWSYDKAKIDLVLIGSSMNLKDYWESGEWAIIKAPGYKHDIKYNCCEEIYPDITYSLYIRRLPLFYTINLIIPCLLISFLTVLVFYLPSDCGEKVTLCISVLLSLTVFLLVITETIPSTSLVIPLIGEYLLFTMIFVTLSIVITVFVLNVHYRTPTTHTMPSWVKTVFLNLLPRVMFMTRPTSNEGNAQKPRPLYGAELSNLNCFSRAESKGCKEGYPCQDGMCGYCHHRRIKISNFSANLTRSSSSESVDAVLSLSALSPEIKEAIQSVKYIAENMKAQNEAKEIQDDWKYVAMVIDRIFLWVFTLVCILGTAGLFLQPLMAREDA
T7 sequence (P30926 22-498): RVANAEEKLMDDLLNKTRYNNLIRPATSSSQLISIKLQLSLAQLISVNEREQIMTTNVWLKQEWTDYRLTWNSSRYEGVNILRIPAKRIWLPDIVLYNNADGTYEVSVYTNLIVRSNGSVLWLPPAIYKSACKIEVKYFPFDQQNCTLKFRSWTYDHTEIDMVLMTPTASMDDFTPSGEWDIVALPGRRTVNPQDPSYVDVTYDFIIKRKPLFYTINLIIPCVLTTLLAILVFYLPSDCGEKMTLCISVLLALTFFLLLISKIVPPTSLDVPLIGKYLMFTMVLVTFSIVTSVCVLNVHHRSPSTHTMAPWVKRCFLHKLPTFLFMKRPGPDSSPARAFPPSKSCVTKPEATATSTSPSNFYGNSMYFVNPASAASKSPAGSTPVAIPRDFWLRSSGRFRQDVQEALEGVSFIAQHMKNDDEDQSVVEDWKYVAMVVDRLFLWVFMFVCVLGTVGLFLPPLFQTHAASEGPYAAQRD
T4 sequence (Q15825 26-494, one chain of several): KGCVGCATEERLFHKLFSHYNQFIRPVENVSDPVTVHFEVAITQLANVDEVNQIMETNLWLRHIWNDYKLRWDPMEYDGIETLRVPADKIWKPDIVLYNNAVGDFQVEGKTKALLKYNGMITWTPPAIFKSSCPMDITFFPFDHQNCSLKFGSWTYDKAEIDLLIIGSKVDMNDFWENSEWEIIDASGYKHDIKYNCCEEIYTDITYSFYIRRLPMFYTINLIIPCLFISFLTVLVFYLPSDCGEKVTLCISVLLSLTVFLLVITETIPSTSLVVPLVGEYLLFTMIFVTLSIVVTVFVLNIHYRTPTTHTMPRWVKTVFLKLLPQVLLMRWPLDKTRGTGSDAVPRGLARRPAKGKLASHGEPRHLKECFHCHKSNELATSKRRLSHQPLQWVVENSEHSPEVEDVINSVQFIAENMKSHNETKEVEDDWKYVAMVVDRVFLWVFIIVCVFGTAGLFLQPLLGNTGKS
T6 sequence (P32297 32-505): as the sequence (P32297 32-505) above
T6 sequence (P30926 22-498): as the sequence (P30926 22-498) above

NC(N)=NC(N)=Nc1ccccc1 [1-PBG]
effect of agonist (agonist-induced current) (human 5-HT3-C; 100 μM, oocytes injected with 33.5 ng 5-HT3-C): no effect | effect of agonist (agonist-induced current) (human 5-HT3-C; [6]): no effect | sensitivity of oocytes to agonist [1]: insensitive

CC(=O)OCC[N+](C)(C)C [ACh]
effect of agonist (agonist-induced current) (human 5-HT3-C; 10 μM, oocytes injected with 33.3 ng 5-HT3-C cRNA): No effect | effect of agonist (agonist-induced current) (human 5-HT3-C; [6]): No effect | sensitivity of oocytes to neuroactive compound (human 5-HT3-C): insensitive | sensitivity of oocytes to neuroactive compound [2]: insensitive | responsiveness of oocytes to agonist ([3]; 500 μM): not responsive

CNCCc1c[nH]c2ccc(O)cc12 [N-ω-methyl-5-HT]
responsiveness of oocytes to agonist (5-HT3-B and 5-HT3-C; 100 μM): unresponsive

Clc1ccc(C2CC3CCC2N3)cn1 (stereo not shown) [epibatidine]
responsiveness of oocytes to agonist ([3]; 10 μM): not responsive | Peak currents [4]: −6.93+/−1.45 nA | Peak currents [5]: 6.49+/−0.69 nA | effect of 5-HT3-C co-injection on epibatidine-activated currents [5]: no effect | effect of 5-HT3-C on t80, time to peak and degree of desensitization to a second epibatidine stimulus [5]: no effect | responsiveness of oocytes to agonist (5-HT3-B and 5-HT3-C; 10 μM): unresponsive

NCCC(=O)O [β-alanine]
sensitivity of oocytes to neuroactive compound (human 5-HT3-C): insensitive | sensitivity of oocytes to neuroactive compound [2]: insensitive

NCCc1ccccc1 [β-phenylethylamine]
sensitivity of oocytes to neuroactive compound (human 5-HT3-C): insensitive | sensitivity of oocytes to neuroactive compound [2]: insensitive
